Test results published in patent publication US4391824A, “Ureylenebis (hydroxy naphthalenesulfonic acids)” (American Cyanamid Company, priority 1981, dated 1983).
“And” between values parts separate entries of the source, which are not always exact repeats. Equal values may be shown once. Where a name gives a salt, the structure may show the parent alone.

How the values were obtained:
[1] = target: T1, human skin fibroblast collagenase (Homo sapiens, UniProt P03956); experiment: Collagenase Assay, Test Code 006 (degradation of 14C-labeled native collagen fibrils); type: biochemical; conditions: 16 hours at 37° C., based on 0% value for enzyme control; for inhibition at 30 µg/mL / % Inhibition of Collagenase: test concentration 30 μg/ml
T1 construct: endogenous in cells; host or cells: human skin fibroblasts (from the enzyme's name; preparation not described)
T1 sequence (P03956 100-469): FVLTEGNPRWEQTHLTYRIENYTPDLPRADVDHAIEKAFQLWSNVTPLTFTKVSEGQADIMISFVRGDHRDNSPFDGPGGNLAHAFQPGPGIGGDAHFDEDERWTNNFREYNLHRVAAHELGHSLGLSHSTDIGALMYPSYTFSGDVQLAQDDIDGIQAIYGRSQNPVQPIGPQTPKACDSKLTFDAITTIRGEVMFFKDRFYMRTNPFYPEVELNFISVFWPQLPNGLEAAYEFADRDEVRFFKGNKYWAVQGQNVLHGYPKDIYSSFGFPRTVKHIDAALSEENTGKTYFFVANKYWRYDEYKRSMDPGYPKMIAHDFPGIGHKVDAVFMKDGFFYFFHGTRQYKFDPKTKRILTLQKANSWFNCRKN
Experimental: Collagenase assays were performed by a modification of the method of Harper, et. al., Biochem. 10: 3035 (1971). In a typical assay (total volume of 0.45 ml), 100 μl of the activated enzyme was added to the 14 C-labeled collagen fibrils (250 μl) followed by 100 μl of 50 mM cacodylate, pH 7.4, containing 5 mM calcium chloride. After incubation at 37° C. for 16 hours, the tubes were centrifuged in a Beckman microfuge for five minutes at full speed. An aliquot (200 μl) of the supernatant, representing collagenase digestion products of the fibril, was assayed for radioactivity. The effect of the test compound on collagen degradation by collagenase was examined as follows:
Varying concentrations of the test compound (in distilled water or dimethylacetamide) were added to the assay tubes containing active collagenase (total volume 450 μl) and after 16 hours the amount of radioactivity in the supernatant was determined. Appropriate blanks and trypsin controls were run in parallel.
The activities are expressed as % inhibition (lowering) of collagenase activity, i.e., based on the 0% value for the enzyme control.

[2] = test system: corneal ulcerations; conditions: alkali burned rabbit, eye; cited from earlier work
[3] = test system: collagenase; conditions: collagenase, or a proteinase contaminant in the collagenase preparation; cited from earlier work
[4] = test system: corneal ulceration; conditions: human; cited from earlier work

## O=C(Nc1cccc(C(=O)Nc2cc3c(O)cc(S(=O)(=O)O)cc3cc2S(=O)(=O)O)c1)Nc1cccc(C(=O)Nc2cc3c(O)cc(S(=O)(=O)O)cc3cc2S(=O)(=O)O)c1 [3,3'-[Ureylenebis(m-phenylenecarbonylimino)]bis[5-hydroxy-2,7-naphthalenedisulfonic acid]tetrasodium salt]
[1]
  inhibition at 30 µg/mL: 41%

## Cc1c(NC(=O)Nc2cccc(C(=O)Nc3cc(S(=O)(=O)O)cc4cc(S(=O)(=O)O)cc(O)c34)c2C)cccc1C(=O)Nc1cc(S(=O)(=O)O)cc2cc(S(=O)(=O)O)cc(O)c12 [4,4'-[Ureylenebis(2-methyl-3,1-phenylenecarbonylimino)]bis[5-hydroxy-2,7-naphthalenedisulfonic acid]tetrasodium salt]
[1]
  % Inhibition of Collagenase: 45%
  inhibition at 30 µg/mL: 32.2%

## Cc1cc(C(=O)Nc2cc(S(=O)(=O)O)cc3cc(S(=O)(=O)O)cc(O)c23)ccc1NC(=O)Nc1ccc(C(=O)Nc2cc(S(=O)(=O)O)cc3cc(S(=O)(=O)O)cc(O)c23)cc1C [4,4'-[Ureylenebis(3-methyl-p-phenylenecarbonylimino)]bis[5-hydroxy-2,7-naphthalenedisulfonic acid]tetrasodium salt]
[1]
  inhibition at 30 µg/mL: 78%

## Cc1ccc(NC(=O)Nc2ccc(C)c(C(=O)Nc3cc(S(=O)(=O)O)cc4cc(S(=O)(=O)O)cc(O)c34)c2)cc1C(=O)Nc1cc(S(=O)(=O)O)cc2cc(S(=O)(=O)O)cc(O)c12 [4,4'-[Ureylenebis(6-methyl-3,1-phenylenecarbonylimino)]bis[5-hydroxy-2,7-naphthalenedisulfonic acid]tetrasodium salt]
[1]
  % Inhibition of Collagenase: 36% and 35%
  inhibition at 30 µg/mL: 50%
[1]; test concentration 60 μg/ml
  inhibition at 60 µg/mL: 39%

## O=C(Nc1cccc(C(=O)Nc2cc(S(=O)(=O)O)cc3cc(S(=O)(=O)O)cc(O)c23)c1)Nc1cccc(C(=O)Nc2cc(S(=O)(=O)O)cc3cc(S(=O)(=O)O)cc(O)c23)c1 [4,4'[Ureylenebis(m-phenylenecarbonylimino)]bis[5-hydroxy-2,7-naphthalenedisulfonic acid]tetrasodium salt]
[1]
  inhibition at 30 µg/mL: 41%

## O=C(Nc1ccc(C(=O)Nc2cccc3cc(S(=O)(=O)O)cc(O)c23)c(S(=O)(=O)O)c1)Nc1ccc(C(=O)Nc2cccc3cc(S(=O)(=O)O)cc(O)c23)c(S(=O)(=O)O)c1 [5,5'-[Ureylenebis(2-sulfo-4,1-phenylenecarbonylimino)]bis[4-hydroxy-2-naphthalenesulfonic acid]tetrasodium salt]
[1]
  inhibition at 30 µg/mL: 58%

## O=C([O-])CN(CCN(CC(=O)[O-])CC(=O)[O-])CC(=O)[O-].[Ca+2].[Ca+2] [Calcium ethylenediaminetetraacetate]
[2]
  frequency of ulceration: reduce the frequency of ulceration

## Cc1ccc(C(=O)Nc2ccc(S(=O)(=O)O)c3cc(S(=O)(=O)O)cc(S(=O)(=O)O)c23)cc1NC(=O)c1cccc(NC(=O)Nc2cccc(C(=O)Nc3cc(C(=O)Nc4ccc(S(=O)(=O)O)c5cc(S(=O)(=O)O)cc(S(=O)(=O)O)c45)ccc3C)c2)c1 [Suramin]
[3]
  inhibition of the activity of collagenase: not inhibiting the action of collagenase

## CC(=O)N[C@@H](CS)C(=O)O [acetylcysteine]
[2]
  frequency of ulceration: reduce the frequency of ulceration
[4]
  effectiveness in treatment of acute and chronic corneal ulceration: effective

## N[C@@H](CS)C(=O)O [cysteine]
[4]
  effectiveness in treatment of acute and chronic corneal ulceration: effective

## Cc1cc(-c2ccc(/N=N/c3c(S(=O)(=O)O)cc4cc(S(=O)(=O)O)cc(N)c4c3O)c(C)c2)ccc1/N=N/c1c(S(=O)(=O)O)cc2cc(S(=O)(=O)O)cc(N)c2c1O [trypan blue]
[3]
  inhibition of the activity of collagenase: inhibiting the activity of collagenase
